# Results published in US10029984B2, “Mono- or di-substituted indole derivatives as dengue viral replication inhibitors” (Janssen Pharmaceuticals, Inc., priority 2015, dated 2018).
# pEC50: −log10 of the molar value.
# Legend:
# DENV-2 16681 strain = assay: DENV-2 antiviral assay (eGFP-labeled virus in Vero cells); type: cell-based, Dengue virus; conditions: DENV-2 16681 eGFP, MOI 0.5, 3 days, listed as 10B*
# Procedure, shortened: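 Vero cells were pre-plated with compound overnight, then infected with eGFP-labeled DENV-2 16681 at MOI 0.5 and incubated 3 days at 37 °C. eGFP fluorescence read by automated microscopy; 9-point 4-fold dilutions (25 μM–0.00038 μM final) in quadruplicate, EC50 by linear interpolation versus virus and cell controls.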
# DENV-2 strain 16681 = assay: Tetravalent RT-qPCR assay Protocol A, serotype 2; type: cell-based; conditions: Dengue virus, DENV2, 72 h; RT-qPCR serotype 2 16681, Vero cells, day 3
# Description: (§1) The antiviral activity of the compounds of the invention was tested against DENV-1 strain TC974#666 (NCPV; Table 6), DENV-2 strain 16681 (Table 7), DENV-3 strain H87 (NCPV; Table 8) and DENV-4 strains H241 (NCPV; Table 9) in a RT-qPCR assay. Therefore, Vero cells were infected with either DENV-1, or -2, or -3, or -4 in the presence or absence of test compounds. At day 3 post-infection, the cells were lysed and cell lysates were used to prepare cDNA of both a viral target (the 3′UTR of DENV; table 2) and a cellular reference gene (β-actin, table 2). Subsequently, a duplex real time PCR was performed on a Lightcycler480 instrument. The generated Cp value is inversely proportional to the amount of RNA expression of these targets. Inhibition of DENV replication by a test compound result in a shift of Cp's for the 3′UTR gene. On the other hand, if a test compound is toxic to the cells, a similar effect on β-actin expression will be observed. The comparative ΔΔCp method is used to calculate EC50, which is based on the relative gene expression of the target gene (3′UTR) normalized with the cellular housekeeping gene (β-actin).
# (§2) The culture medium consisted of minimal essential medium supplemented with 2% of heat-inactivated fetal calf serum, 0.04% gentamycin (50 mg/mL) and 2 mM of L-glutamine. Vero cells, obtained from ECACC, were suspended in culture medium and 75 μL/well was added in 96-well plates (10000 cells/well), which already contain the antiviral compounds. Typically, these plates contain a 4-fold serial dilution of 9 dilution steps of the test compound at 200 times the final concentration in 100% DMSO (500 nL; final concentration range: 25 μM-0.00038 μM). In addition, each plate contains wells which are assigned as virus controls (containing cells and virus in the absence of compound) and cell controls (containing cells in the absence of virus and compound). Once the cells were added in the plates, the plates were incubated in a fully humidified incubator (37° C., 5% CO2) until the next day. Then, DENV-1 strain TC974#666 at an MOI of 0.6, DENV-2 strain 16681 at an MOI of 0.01, DENV-3 strain H87 at an MOI of 1.0 and DENV-4 strains H241 at an MOI of 0.2 and SG/06K2270DK1/2005 at an MOI of 0.16, were added. Therefore, 25 μL of virus suspension was added to all the wells containing test compound and to the wells assigned as virus control. In parallel, 25 μL of culture medium was added to the cell controls. Next, the plates were incubated for 3 days in a fully humidified incubator (37° C., 5% CO2). After 3 days, the supernatant was removed from the wells and the cells were washed twice with ice-cold PBS (˜100 μL). The cell pellets within the 96-well plates were stored at −80° C. for at least 1 day. Next, RNA was extracted using the Cells-to-CT™ lysis kit, according to the manufacture's guideline (Applied Biosystems). The cell lysates can be stored at −80° C. or immediately used in the reverse transcription step.
# (§3) In preparation of the reverse transcription step, mix A (table 3A) was prepared and 7.57 μL/well was dispensed in a 96-well plate. After addition of 5 μL of the cell lysates, a five minute denaturation step at 75° C. was performed (table 3B). Afterwards, 7.43 μL of mix B was added (table 3C) and the reverse transcription step was initiated (table 3D) to generate cDNA.
# (§4) Finally, a RT-qPCR mix was prepared, mix C (table 4A), dispensed in 96-well LightCycler qPCR plates to which 3 μL of cDNA was added and the qPCR was performed according to the conditions in table 4B on a LightCycler 480. Using the LightCycler software and an in-house LIMS system, dose response curves for each compound were calculated and the half maximal effective concentration (EC50) and the half maximal cytotoxic concentration (CC50) were determined.
# DENV-4 strains H241 = assay: Tetravalent RT-qPCR assay Protocol A, serotype 4; type: cell-based; conditions: Dengue virus, DENV4, 72 h; RT-qPCR serotype 4 H241, Vero cells, day 3
# Description: as §1, §2, §3, §4
# DENV-3 strain H87 = assay: Tetravalent RT-qPCR assay Protocol A, serotype 3; type: cell-based; conditions: Dengue virus, DENV3, 72 h; RT-qPCR serotype 3 H87, Vero cells, day 3
# Description: as §1, §2, §3, §4
# in vitro = type: cell-based; conditions: African green monkey, CC50
# Description: as §1, §2, §4
compound,measurement,setting,value
"COc1cc(NC(C(=O)c2c[nH]c3cc(OC)c(C)cc23)c2ccc(F)cc2OC)cc(S(C)(=O)=O)c1 (single isomer, unassigned) [Enantiomer 10B, 2-(4-fluoro-2-methoxyphenyl)-2-((3-methoxy-5-(methylsulfonyl)phenyl)amino)-1-(6-methoxy-5-methyl-1H-indol-3-yl)ethanone]",pEC50,DENV-2 16681 strain,9.17
same,pEC50,DENV-2 strain 16681,9.22
same,pEC50,DENV-4 strains H241,6.96
same,pEC50,DENV-3 strain H87,7.26
same,CC50 at 3 days,in vitro,5140 nM
